{"source": "patent US5124083A", "about": "“3-substituted and 3,3-disubstituted 4-oxoretinoic acids and their esters” (Southern Research Institute, priority 1990, dated 1992)", "origin": "cited, not measured here", "key": {"[1]": {"conditions": "Roberts and Frolik, Roberts et al.; cited from earlier work"}, "[2]": {"tested_on": "tracheas obtained from vitamin A-deficient hamsters", "conditions": "value taken from Newton et al.; read-out: ED50, hamster trachea organ culture assay; cited from earlier work"}, "[3]": {"tested_on": "mammary carcinogenesis", "conditions": "rats; Moon et al.; cited from earlier work"}, "[4]": {"tested_on": "pre-neoplastic and malignant epithelial lesions", "conditions": "literature; cited from earlier work"}, "[5]": {"tested_on": "certain neoplastic cells", "conditions": "literature; cited from earlier work"}}}
{"smiles": "CC1=C(/C=C/C(C)=C/C=C/C(C)=C/C(=O)O)C(C)(C)CCC1=O", "note": "[all-trans-4-oxoretinoic acid]", "values": [{"measurement": "Metabolite identity", "setting": "[1]", "result": "one of the metabolites of all-trans-retinoic acid"}]}
{"smiles": "CC1=C(/C=C/C(C)=C/C=C/C(C)=C/C(=O)NCCO)C(C)(C)CCC1", "note": "[All-trans-N-(2-hydroxyethyl)-retinamide]", "values": [{"measurement": "EC50", "setting": "[2]", "result": 0.1, "unit": "nM"}]}
{"smiles": "CC1=C(/C=C/C(C)=C/C=C/C(C)=C\\C(=O)Nc2ccc(O)cc2)C(C)(C)CCC1", "note": "[13-Cis-N-(4-hydroxyphenyl)-retinamide]", "values": [{"measurement": "EC50", "setting": "[2]", "result": "> 1", "unit": "nM"}, {"measurement": "Suppression of mammary carcinogenesis", "setting": "[3]", "result": "suppress mammary carcinogenesis in rats"}]}
{"smiles": "CC1=C(/C=C/C(C)=C/C=C/C(C)=C/C(=O)O)C(C)(C)CCC1", "note": "[all-trans-retinoic acid]", "values": [{"measurement": "Prophylactic effect on development of pre-neoplastic and malignant epithelial lesions", "setting": "[4]", "result": "exert a prophylactic effect"}, {"measurement": "Induction of differentiation of certain neoplastic cells to terminally differentiated cells", "setting": "[5]", "result": "highly active inducers of differentiation"}]}
{"smiles": "CC1=C(/C=C/C(C)=C/C=C/C(C)=C/C(=O)Nc2ccc(O)cc2)C(C)(C)CCC1", "note": "[All-trans-N-(4-hydroxyphenyl)-retinamide]", "values": [{"measurement": "EC50", "setting": "[2]", "result": 0.3, "unit": "nM"}, {"measurement": "Suppression of mammary carcinogenesis", "setting": "[3]", "result": "suppress mammary carcinogenesis in rats"}]}
{"smiles": "CC1=C(/C=C/C(C)=C/C=C/C(C)=C\\C(=O)O)C(C)(C)CCC1", "note": "[13-cis-retinoic acid]", "values": [{"measurement": "Prophylactic effect on development of pre-neoplastic and malignant epithelial lesions", "setting": "[4]", "result": "exert a prophylactic effect"}, {"measurement": "Induction of differentiation of certain neoplastic cells to terminally differentiated cells", "setting": "[5]", "result": "highly active inducers of differentiation"}]}
{"smiles": "CC1=C(/C=C/C(C)=C/C=C/C(C)=C\\C(=O)NCCO)C(C)(C)CCC1", "note": "[13-Cis-N-(2-hydroxyethyl)-retinamide]", "values": [{"measurement": "EC50", "setting": "[2]", "result": 0.3, "unit": "nM"}]}
{"smiles": "CCNC(=O)\\C=C(C)/C=C/C=C(C)/C=C/C1=C(C)CCCC1(C)C", "note": "[13-Cis-N-ethylretinamide]", "values": [{"measurement": "EC50", "setting": "[2]", "result": 0.3, "unit": "nM"}]}
